From US4672057A, “Morpholino derivatives of daunorubicin and doxorubicin” (priority 1985, dated 1987)
Values after ≈ are worked out from the molar mass of the structure shown. Read-outs that look alike come from different tables or passages of the source.

Columns and labels:
HeLa cells = assay: Colony inhibition test against HeLa cells in vitro; assay type: cell-based; settings: Homo sapiens
From the text: The compounds have been tested in several experimental systems in order to ascertain their cytotoxicity and antitumor activity in experimental animals.
Colony inhibition test against HeLa cells
in vitro (treatment for 24 hrs)

P388 leukemia = assay: Antitumor activity against P388 leukemia in CDF-1 mice; assay type: in vivo; settings: for LTS (long term survivors, >60 days) / Toxic deaths / T/C %: ip on day 1; for Toxic deaths: autopsy findings; for T/C %: median survival time
Method: (§1) The primary screening in vivo was carried out in CDF-1 mice bearing P388 ascetic leukemia (10^6 cells/mouse). […] The doxorubicin analogs II, IV, VI have been tested in C3H mice bearing the Gross leukemia injected iv (2×10^6 cell/mouse). […] Compound II has been studied on P388 leukemia cells resistant to doxorubicin (P388/DX) in vitro and in vivo. Cytotoxicity tests were carried out exposing the cells to various drug concentrations for 48 hrs. At the end of exposure period cells were counted with a coulter cell counter, and the ID50 (dose which gives 50% reduction of the cell number in comparison with untreated controls) was calculated. […] Compound II has been tested also in vivo in BDF-1 mice bearing P388/DX leukemia.
Antitumor activity against P388 leukemia
^a Median survival time; % over untreated controls
^b Long term survivors (>60 days)
^c Evaluated on the basis of autopsy findings on dead mice

P388 leukemia cells = assay: Cytotoxicity test on doxorubicin-sensitive P388 leukemia cells in vitro; assay type: cell-based; settings: for IC50: Mus musculus
Method: as §1
(§2) Effect on sensitive and doxorubicin-resistant
(§3) ^a Dose giving 50% reduction of cell number in comparison with
^b P388 leukemia cells sensitive to doxorubicin

Gross leukemia = assay: Activity on Gross leukemia in C3H mice; assay type: in vivo; settings: for LTS (long term survivors, >60 days) / Toxic deaths / T/C %: iv on day 1; for Toxic deaths: autopsy findings; for T/C %: median survival time; for potency versus doxorubicin in Gross leukemia: iv on day 1 after tumor inoculation
Method: as §1
Activity on Gross leukemia (IV-1)

P388/DX leukemia = assay: Effect on doxorubicin-resistant P388 leukemia (P388/DX) in vivo; set-up: species or system BDF-1 mice; settings: for Toxic deaths: autopsy findings; for T/C: median survival time
Method: as §1
Effect on doxorubicin-resistant P388 leukemia

P388/DX leukemia cells = assay: Cytotoxicity test on doxorubicin-resistant P388 leukemia cells (P388/DX) in vitro; assay type: cell-based; settings: for activity on P388/DX leukemia cells: P388/DX cells in vitro, 48 hrs
Method: as §1, §2, §3
^c P388 leukemia cells resistant to doxorubicin

[1] = compared with doxorubicin, P388 leukemia in mice
[2] = HeLa cells, colony inhibition, treatment for 24 hrs, read-out: ID50 (the source's name)

COc1cccc2c1C(=O)c1c(O)c3c(c(O)c1C2=O)C[C@@](O)(C(C)=O)C[C@@H]3O[C@H]1C[C@H](N2CCOC(OC)C2)[C@H](O)[C@H](C)O1 (stereo partly shown) [Compound I, 3'-deamino-3'-(2"-methoxy-4"-morpholinyl)daunorubicin]
IC50 (HeLa cells; HeLa, 24 h, read-out: ID50): 2 ng/mL (≈ 3.19 nM) | LTS (long term survivors, >60 days) (P388 leukemia; 0.13 mg/Kg): 0/10 | Toxic deaths (P388 leukemia; 0.13 mg/Kg): 0/10 | T/C % (P388 leukemia; 0.13 mg/Kg): 136%

COc1cccc2c1C(=O)c1c(O)c3c(c(O)c1C2=O)C[C@@](O)(C(=O)CO)C[C@@H]3O[C@H]1C[C@H](N2CCOC(OC)C2)[C@H](O)[C@H](C)O1 (stereo partly shown) [Compound II, 3'-deamino-3'-(2"-methoxy-4"-morpholinyl)doxorubicin]
IC50 (HeLa cells; HeLa, 24 h, read-out: ID50): 0.96 ng/mL (≈ 1.49 nM) | LTS (long term survivors, >60 days) (P388 leukemia; 0.15 mg/Kg): 2/10 | Toxic deaths (P388 leukemia; 0.15 mg/Kg): 0/10 | T/C % (P388 leukemia; 0.15 mg/Kg): 295% | efficacy versus the parent drug (P388 leukemia; [1]): exhibits a major efficacy | potency versus the parent drug (P388 leukemia; [1]): more potent than the parent drug | times more potent than the parent drug (P388 leukemia; [1]): 60 times | IC50 (P388 leukemia cells; P388, 48 h, read-out: ID50): 0.3 ng/mL (≈ 0.466 nM) | times more cytotoxic than doxorubicin (P388 leukemia cells; P388 leukemia cells): 40 times | LTS (long term survivors, >60 days) (Gross leukemia; 0.16 mg/Kg): 0/10 | Toxic deaths (Gross leukemia; 0.16 mg/Kg): 0/10 | T/C % (Gross leukemia; 0.16 mg/Kg): 150% | potency versus doxorubicin in Gross leukemia (Gross leukemia): more potent than doxorubicin | LTC (long term survivors, >60 days) (P388/DX leukemia; 0.075 mg/Kg): 0/10 | Toxic deaths (P388/DX leukemia; 0.075 mg/Kg): 0/10 | T/C (P388/DX leukemia; 0.075 mg/Kg): 100% | LTC (long term survivors, >60 days) (P388/DX leukemia; 0.15 mg/Kg): 0/10 | Toxic deaths (P388/DX leukemia; 0.15 mg/Kg): 1/10 | T/C (P388/DX leukemia; 0.15 mg/Kg): 165% | activity in P388/DX leukemia in vivo (P388/DX leukemia; BDF-1 mice, 0.15 mg/Kg): very active | activity on P388/DX leukemia cells (P388/DX leukemia cells): very active | IC50 (P388/DX leukemia cells; P388/DX, 48 h, read-out: ID50): 3 ng/mL (≈ 4.66 nM)

COc1cccc2c1C(=O)c1c(O)c3c(c(O)c1C2=O)C[C@@](O)(C(C)=O)C[C@@H]3O[C@H]1C[C@H](N)[C@H](O)[C@H](C)O1 [Daunorubicin, daunorubicin]
IC50 (HeLa cells; [2]): 18.6 ng/mL (≈ 35.3 nM) | LTS (long term survivors, >60 days) (P388 leukemia; 2.9 mg/Kg): 0/10 | Toxic deaths (P388 leukemia; 2.9 mg/Kg): 0/10 | T/C % (P388 leukemia; 2.9 mg/Kg): 145% | LTS (long term survivors, >60 days) (P388 leukemia; 4.4 mg/Kg): 0/10 | Toxic deaths (P388 leukemia; 4.4 mg/Kg): 1/10 | T/C % (P388 leukemia; 4.4 mg/Kg): 150%

COc1cccc2c1C(=O)c1c(O)c3c(c(O)c1C2=O)C[C@@](O)(C(=O)CO)C[C@@H]3O[C@H]1C[C@H](N)[C@H](O)[C@H](C)O1 [Doxorubicin, doxorubicin]
IC50 (HeLa cells; [2]): 18 ng/mL (≈ 33.1 nM) | LTS (long term survivors, >60 days) (P388 leukemia; 6.6 mg/Kg): 0/10 | Toxic deaths (P388 leukemia; 6.6 mg/Kg): 0/10 | T/C % (P388 leukemia; 6.6 mg/Kg): 214% | LTS (long term survivors, >60 days) (P388 leukemia; 10 mg/Kg): 1/10 | Toxic deaths (P388 leukemia; 10 mg/Kg): 0/10 | T/C % (P388 leukemia; 10 mg/Kg): 214% | IC50 (P388 leukemia cells; P388 sensitive to doxorubicin, 48 hrs exposure, cell count, read-out: ID50 (the source's name)): 12 ng/mL (≈ 22.1 nM) | LTS (long term survivors, >60 days) (Gross leukemia; 10 mg/Kg): 0/10 | Toxic deaths (Gross leukemia; 10 mg/Kg): 0/10 | T/C % (Gross leukemia; 10 mg/Kg): 183% | LTS (long term survivors, >60 days) (Gross leukemia; 13 mg/Kg): 0/10 | Toxic deaths (Gross leukemia; 13 mg/Kg): 0/10 | T/C % (Gross leukemia; 13 mg/Kg): 200% | LTC (long term survivors, >60 days) (P388/DX leukemia; 4.4 mg/Kg): 0/10 | Toxic deaths (P388/DX leukemia; 4.4 mg/Kg): 0/10 | T/C (P388/DX leukemia; 4.4 mg/Kg): 110% | LTC (long term survivors, >60 days) (P388/DX leukemia; 6.6 mg/Kg): 0/10 | Toxic deaths (P388/DX leukemia; 6.6 mg/Kg): 0/10 | T/C (P388/DX leukemia; 6.6 mg/Kg): 100% | activity on P388/DX leukemia cells (P388/DX leukemia cells): inactive | IC50 (P388/DX leukemia cells; P388/DX resistant to doxorubicin, 48 hrs exposure, cell count, read-out: ID50 (the source's name)): 1500 ng/mL (≈ 2760 nM)

COc1cccc2c1C(=O)c1c(O)c3c(c(O)c1C2=O)C[C@@](O)(C(C)=O)C[C@@H]3O[C@H]1C[C@H](N2CC(C)OC(OC)C2)[C@H](O)[C@H](C)O1 (stereo partly shown) [III, 3'-deamino-3'-(2"-methoxy-6"-methyl-4"-morpholinyl)daunorubicin]
IC50 (HeLa cells; HeLa, 24 h, read-out: ID50): 1.8 ng/mL (≈ 2.81 nM)

COc1cccc2c1C(=O)c1c(O)c3c(c(O)c1C2=O)C[C@@](O)(C(=O)CO)C[C@@H]3O[C@H]1C[C@H](N2CC(C)OC(OC)C2)[C@H](O)[C@H](C)O1 (stereo partly shown) [IV, 3'-deamino-3'-(2"-methoxy-6"-methyl-4"-morpholinyl)doxorubicin]
IC50 (HeLa cells; HeLa, 24 h, read-out: ID50): 0.32 ng/mL (≈ 0.487 nM) | LTS (long term survivors, >60 days) (P388 leukemia; 0.2 mg/Kg): 0/10 | Toxic deaths (P388 leukemia; 0.2 mg/Kg): 0/10 | T/C % (P388 leukemia; 0.2 mg/Kg): 173% | potency versus the parent drug (P388 leukemia; [1]): more potent than the parent drug | LTS (long term survivors, >60 days) (Gross leukemia; 0.27 mg/Kg): 0/10 | Toxic deaths (Gross leukemia; 0.27 mg/Kg): 0/10 | T/C % (Gross leukemia; 0.27 mg/Kg): 142% | potency versus doxorubicin in Gross leukemia (Gross leukemia): more potent than doxorubicin

COc1cccc2c1C(=O)c1c(O)c3c(c(O)c1C2=O)C[C@@](O)(C(C)=O)C[C@@H]3O[C@H]1C[C@H](N2CC(CO)OC(OC)C2)[C@H](O)[C@H](C)O1 (stereo partly shown) [V, 3'-deamino-3'-(2"-methoxy-6"-hydroxymethyl-4"-morpholinyl)daunorubicin]
IC50 (HeLa cells; HeLa, 24 h, read-out: ID50): 10.5 ng/mL (≈ 16 nM) | LTS (long term survivors, >60 days) (P388 leukemia; 2.0 mg/Kg): 0/10 | Toxic deaths (P388 leukemia; 2.0 mg/Kg): 0/10 | T/C % (P388 leukemia; 2.0 mg/Kg): 145% | LTS (long term survivors, >60 days) (P388 leukemia; 3.0 mg/Kg): 0/10 | Toxic deaths (P388 leukemia; 3.0 mg/Kg): 0/10 | T/C % (P388 leukemia; 3.0 mg/Kg): 164% | activity versus daunorubicin (increase of mice life span) (P388 leukemia; same optimal dose, P388 leukemia in mice): more active than daunorubicin

COc1cccc2c1C(=O)c1c(O)c3c(c(O)c1C2=O)C[C@@](O)(C(=O)CO)C[C@@H]3O[C@H]1C[C@H](N2CC(CO)OC(OC)C2)[C@H](O)[C@H](C)O1 (stereo partly shown) [VI, 3'-deamino-3'-(2"-methoxy-6"-hydroxymethyl-4"-morpholinyl)doxorubicin]
IC50 (HeLa cells; HeLa, 24 h, read-out: ID50): 9 ng/mL (≈ 13.4 nM) | LTS (long term survivors, >60 days) (P388 leukemia; 1.33 mg/Kg): 0/10 | Toxic deaths (P388 leukemia; 1.33 mg/Kg): 0/10 | T/C % (P388 leukemia; 1.33 mg/Kg): 164% | LTS (long term survivors, >60 days) (P388 leukemia; 2.0 mg/Kg): 0/10 | Toxic deaths (P388 leukemia; 2.0 mg/Kg): 0/10 | T/C % (P388 leukemia; 2.0 mg/Kg): 195% | potency versus the parent drug (P388 leukemia; [1]): more potent than the parent drug | LTS (long term survivors, >60 days) (Gross leukemia; 2 mg/Kg): 0/10 | Toxic deaths (Gross leukemia; 2 mg/Kg): 0/10 | T/C % (Gross leukemia; 2 mg/Kg): 150% | potency versus doxorubicin in Gross leukemia (Gross leukemia): more potent than doxorubicin
